According to EP4471048A1, “PEPTIDE INHIBITORS OF INTERLEUKIN-23 RECEPTOR” (Zealand Pharma A/S, priority 2023, dated 2024):
Where a SMILES comes first, the peptide text is derived from it. Bridges are numbered along the chain shown (N, C = ends). [ ]: non-standard residue; d: D form. 2Nal = N[C@@H](Cc1ccc2ccccc2c1)C(=O)O; AEF = NCCOc1ccc(C[C@H](N)C(=O)O)cc1; 3Pal = N[C@@H](Cc1cccnc1)C(=O)O; Lys(Me) = CNCCCC[C@H](N)C(=O)O; αMeL = CC(C)C[C@](C)(N)C(=O)O; NMeK = CN[C@@H](CCCCN)C(=O)O; Dab = NCC[C@H](N)C(=O)O; βAla = NCCC(=O)O

How the values were obtained:
[1] = Peptide stability in simulated gastric fluid (SGF); type: in vitro ADME; conditions: 37 °C, porcine pepsin; for remaining at 1 h, 10 µM / remaining at 4 h, 10 µM: pig, simulated gastric fluid (SGF) with porcine pepsin (3.2 g/L), pH 1.2, 10 µM; for remaining at 1 h, 10 µM: pH 1.2, 1 h, read-out: SGF (% remaining 1 h); for remaining at 4 h, 10 µM: read-out: SGF (% remaining 4 h)
Description: (§1) SGF was prepared by dissolving sodium chloride (0.2 g) in 50 mL of water. A volume of 0.7 mL of 10 M HCl was added to adjust the pH of the solution to 1.2 and the volume made up to 100 mL with water. […] SIF was prepared by dissolving monobasic potassium phosphate (0.68 g) in 50 mL of water and adjusting the pH to 6.8 with 1 M NaOH. The volume was subsequently made up to 100 mL with water. 200 mg porcine pancreatin (P1625, Sigma Aldrich) was gently dissolved into 20 mL preheated (37 °C) solution (10 g/L) immediately prior to the incubation.
(§2) The incubation was performed at 37 °C with gentle shaking. […] After the last timepoint, the sampling plate was mixed for 10 min on a shaking table and centrifuged 10 min at 2200 g. 70 µL resulting supernatant was diluted with 150 µL water, mixed and centrifugated before analysis by liquid chromatography high resolution mass spectrometry. […] Percent remaining at each timepoint was calculated relative to timepoint zero based on absolute peak areas.
Compounds with a SGF stability (after 4 h) above 70% are considered highly SGF stable. […] Table 3-4: SGF data

human IL-23R = target: T1, human IL-23R (Homo sapiens, UniProt Q5VWK5); experiment: biochemical; conditions: for Emax: read-out: % displacement (hIL-23R NIuc)
T1 sequence (Q5VWK5 22-629): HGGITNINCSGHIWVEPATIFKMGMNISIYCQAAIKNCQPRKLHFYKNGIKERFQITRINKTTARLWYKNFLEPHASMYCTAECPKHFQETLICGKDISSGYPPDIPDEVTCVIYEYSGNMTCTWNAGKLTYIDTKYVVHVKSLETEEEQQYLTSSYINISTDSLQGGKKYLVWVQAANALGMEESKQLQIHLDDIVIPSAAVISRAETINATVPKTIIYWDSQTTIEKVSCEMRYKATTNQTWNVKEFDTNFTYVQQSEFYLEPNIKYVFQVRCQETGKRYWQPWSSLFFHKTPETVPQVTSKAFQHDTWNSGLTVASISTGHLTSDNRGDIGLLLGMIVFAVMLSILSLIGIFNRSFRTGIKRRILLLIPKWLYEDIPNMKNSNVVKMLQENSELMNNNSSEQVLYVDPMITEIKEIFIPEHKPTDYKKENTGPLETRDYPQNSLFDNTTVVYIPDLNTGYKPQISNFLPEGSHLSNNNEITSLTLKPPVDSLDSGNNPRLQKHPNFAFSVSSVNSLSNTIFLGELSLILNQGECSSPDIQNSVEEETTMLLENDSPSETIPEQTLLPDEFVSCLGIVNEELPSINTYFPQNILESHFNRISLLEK
Outline: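 BRET displacement of a TAMRA-labelled reference compound from N-terminal Nanoluc-IL-23R fusion protein in membranes from stably transfected HEK293 cells. Incubation 2 h at room temperature, then Nanoluc substrate was added and the TAMRA/Nanoluc ratio read. IC50 and maximal displacement came from 4-parameter logistic fits.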

[2] = Peptide stability in simulated intestinal fluid (SIF); type: in vitro ADME; conditions: pig, 37 °C, porcine pancreatin; for remaining at 1 h, 10 µM: pH 6.8, 1 h; for remaining at 4 h, 10 µM: pH 6.8, 4 h, read-out: SIF (% remaining 4 h)
Description: as §1, §2
Compounds with a SIF stability (after 4 h) above 70% are considered highly SIF stable.

Row | remaining at 1 h, 10 µM [1] [%] | remaining at 4 h, 10 µM ([1]; pH 1.2, 4 h) [%] | % displacement (hIL-23R NIuc) (human IL-23R) [%] | IC50 (human IL-23R) [nM] | remaining at 1 h, 10 µM [2] [%] | remaining at 4 h, 10 µM [2] [%] | Emax (human IL-23R) [%] | SGF (% remaining 4 h) ([1]; 10 µM, pH 1.2, 4 h) [%] | SMILES
1 | 100 | 99 | 102 | 0.12 | 11 | 0 | – | – | CC[C@H](C)[C@@H]1NC(=O)[C@@H]2CCCCNC(=O)CC[C@@H](C(=O)N[C@@H](Cc3cn(C)cn3)C(=O)N[C@@H](Cc3cccnc3)C(=O)NC)NC(=O)[C@](C)(CC(C)C)NC(=O)[C@H](Cc3ccc4ccccc4c3)NC(=O)[C@H](Cc3ccc(OCCN)cc3)NC(=O)[C@H](CCC(=O)N2)NC(=O)[C@H](CCC(N)=O)NC(=O)[C@H](Cc2c[nH]c3ccccc23)NC(=O)[C@H](C(C)C)NC1=O [Compound 73, K(1c)(6c)^†IVWQE(6c)[Y(2-aminoethoxy)][2-Nal][2-Me-Leu]E(1c)[H(1-Me)][3-(3-Pyridyl)-Ala]-[NHMe]]
2 | 94 | 92 | – | – | 91 | 89 | 99 | – | CC[C@H](C)[C@@H]1NC(=O)[C@@H]2CCC(=O)N(C)CCCC[C@@H](C(=O)N[C@@H](CCN)C(=O)N[C@@H](Cc3cccnc3)C(=O)NC)NC(=O)[C@](C)(CC(C)C)NC(=O)[C@H](Cc3ccc4ccccc4c3)NC(=O)[C@H](Cc3ccc(OCCN)cc3)NC(=O)[C@H](CCC(=O)N2)NC(=O)[C@H](CCC(N)=O)NC(=O)[C@H](Cc2c[nH]c3ccccc23)NC(=O)[C@H](C(C)C)NC1=O [Compound 74, E(1c)(6c)^†IVWQE(6c)[Y(2-aminoethoxy)][2-Nal][2-Me-Leu][K(Me)](1 c)[Dab][3-(3-Pyridyl)-Ala]-[NHMe]] (EIVWQE[AEF][2Nal][αMeL][Lys(Me)][Dab][3Pal]-NHMe; lactam 1-10, N-6)
3 | 102 | 92 | – | 0.017 | 96 | 79 | 101 | – | CC[C@H](C)[C@@H]1NC(=O)[C@@H]2CCCCNC(=O)CC[C@@H](C(=O)N[C@@H](CCN)C(=O)N[C@@H](Cc3cccnc3)C(=O)NC)NC(=O)[C@](C)(CC(C)C)NC(=O)[C@H](Cc3ccc4ccccc4c3)NC(=O)[C@H](Cc3ccc(OCCN)cc3)NC(=O)[C@H](CCC(=O)N2C)NC(=O)[C@H](CCC(N)=O)NC(=O)[C@H](Cc2c[nH]c3ccccc23)NC(=O)[C@H](C(C)C)NC1=O [Compound 75, [N-Me-Lys](1c)(6c)^†IVWQE(6c)[Y(2-aminoethoxy)][2-Nal][2-Me-Leu]E(1c)[Dab][3-(3-Pyridyl)-Ala]-[NHMe]]
4 | 107 | 104 | – | 0.017 | 116 | 89 | 102 | – | CNC(=O)[C@H](Cc1cccnc1)NC(=O)[C@H](CCN)NC(=O)[C@@H]1CCC(=O)NCCCC[C@H]2C(=O)NCCC(=O)N[C@@H](Cc3c[nH]c4ccccc34)C(=O)N[C@@H](CCC(N)=O)C(=O)N[C@@H](CCC(=O)N2C)C(=O)N[C@@H](Cc2ccc(OCCN)cc2)C(=O)N[C@@H](Cc2ccc3ccccc3c2)C(=O)N[C@@](C)(CC(C)C)C(=O)N1 [Compound 80, [N-Me-Lys](1c)(6c)^†[3-Aminopropanoyl]WQE(6c)[Y(2-aminoethoxy)][2-Nal][2-Me-Leu]E(1c)[Dab][3-(3-Pyridyl)-Ala]-[NHMe]] ([NMeK][βAla]WQE[AEF][2Nal][αMeL]E[Dab][3Pal]-NHMe; lactam 1-9, N-5)
5 | 100 | – | 103 | 0.056 | 101 | 78 | – | 99 | CNC(=O)[C@H](Cc1cccnc1)NC(=O)[C@H](CCN)NC(=O)[C@@H]1CCC(=O)NCCCC[C@@H]2NC(=O)CC[C@H](NC(=O)[C@H](CCC(N)=O)NC(=O)[C@H](Cc3c[nH]c4ccccc34)NC(=O)CCN(C)C2=O)C(=O)N[C@@H](Cc2ccc(OCCN)cc2)C(=O)N[C@@H](Cc2ccc3ccccc3c2)C(=O)N[C@@](C)(CC(C)C)C(=O)N1 [Compound 81, K(1c)(6c)^†[N-Me-3-Aminopropanoyl]WQE(6c)[Y(2-aminoethoxy)][2-Nal][2-Me-Leu]E(1c)[Dab][3-(3-Pyridyl)-Ala]-[NHMe]]
6 | 106 | 97 | – | 0.38 | 94 | 86 | 101 | – | CNC(=O)[C@H](Cc1cccnc1)NC(=O)[C@H](CCN)NC(=O)[C@@H]1CCC(=O)NCCCC[C@@H]2NC(=O)CC[C@H](NC(=O)[C@H](CCC(N)=O)NC(=O)[C@H](Cc3c[nH]c4ccccc34)NC(=O)CCNC2=O)C(=O)N[C@@H](Cc2cccnc2)C(=O)N[C@@H](Cc2ccc3ccccc3c2)C(=O)N[C@@](C)(CC(C)C)C(=O)N1 [Compound 83, K(1c)(6c)^†[3-Aminopropanoyl]WQE(6c)[3-(3-Pyridyl)-Ala][2-Nal][2-Me-Leu]E(1c)[Dab][3-(3-Pyridyl)-Ala]-[NHMe]]
7 | 107 | 103 | – | 0.11 | 92 | 82 | 97 | – | CNC(=O)[C@H](Cc1cccnc1)NC(=O)[C@H](CCN)NC(=O)[C@@H]1CCC(=O)NCCCC[C@@H]2NC(=O)CC[C@H](NC(=O)[C@H](CCC(N)=O)NC(=O)[C@H](Cc3c[nH]c4ccccc34)NC(=O)CCNC2=O)C(=O)N[C@@H](Cc2ccccn2)C(=O)N[C@@H](Cc2ccc3ccccc3c2)C(=O)N[C@@](C)(CC(C)C)C(=O)N1 [Compound 84, K(1c)(6c)^†[3-Aminopropanoyl]WQE(6c)[3-(2-Pyridyl)-Ala][2-Nal][2-Me-Leu]E(1c)[Dab][3-(3-Pyridyl)-Ala]-[NHMe]]
8 | 109 | 110 | – | 0.17 | 103 | 85 | 97 | – | CNC(=O)[C@H](Cc1cccnc1)NC(=O)[C@H](CCN)NC(=O)[C@@H]1CCC(=O)NCCCC[C@@H]2NC(=O)CC[C@H](NC(=O)[C@H](CCC(N)=O)NC(=O)[C@H](Cc3c[nH]c4ccccc34)NC(=O)CCNC2=O)C(=O)N[C@@H](Cc2ccncc2)C(=O)N[C@@H](Cc2ccc3ccccc3c2)C(=O)N[C@@](C)(CC(C)C)C(=O)N1 [Compound 85, K(1c)(6c)^†[3-Aminopropanoyl]WQE(6c)[3-(4-Pyridyl)-Ala][2-Nal][2-Me-Leu]E(1c)[Dab][3-(3-Pyridyl)-Ala]-[NHMe]]
9 | 94 | 111 | 101 | 0.049 | 77 | 36 | – | – | CNC(=O)[C@H](Cc1cccnc1)NC(=O)[C@H](Cc1cnc[nH]1)NC(=O)[C@@H]1CCC(=O)NCCCC[C@@H]2NC(=O)CC[C@H](NC(=O)[C@H](CCC(N)=O)NC(=O)[C@H](Cc3c[nH]c4ccccc34)NC(=O)CCNC2=O)C(=O)N[C@@H](Cc2ccc(OCCN)cc2)C(=O)N[C@@H](Cc2ccc3ccccc3c2)C(=O)N[C@@](C)(CC(C)C)C(=O)N1 [Compound 86, K(1c)(6c)^†[3-Aminopropanoyl]WQE(6c)[Y(2-aminoethoxy)][2-Nal][2-Me-Leu]E(1c)H[3-(3-Pyridyl)-Ala]-[NHMe]]
10 | 87 | 89 | 103 | 0.039 | 1 | 1 | – | – | CNC(=O)[C@H](Cc1cccnc1)NC(=O)[C@H](Cc1cccnc1)NC(=O)[C@@H]1CCC(=O)NCCCC[C@@H]2NC(=O)CC[C@H](NC(=O)[C@H](CCC(N)=O)NC(=O)[C@H](Cc3c[nH]c4ccccc34)NC(=O)CCNC2=O)C(=O)N[C@@H](Cc2ccc(OCCN)cc2)C(=O)N[C@@H](Cc2ccc3ccccc3c2)C(=O)N[C@@](C)(CC(C)C)C(=O)N1 [Compound 87, K(1c)(6c)^†[3-Aminopropanoyl]WQE(6c)[Y(2-aminoethoxy)][2-Nal][2-Me-Leu]E(1 c)[3-(3-Pyridyl)-Ala][3-(3-Pyridyl)-Ala]-[NHMe]]
